Results published in patent publication US10501438B2, “Aryl-substituted dihydroquinolinones, their preparation and their use as pharmaceuticals” (NEOMED Institute, priority 2015, dated 2019).

Test system: human C-Myc transcription in MV-4-11 cells
Assay: Transcription of human C-Myc in human leukemic MV-4-11 cells (QuantiGene 2.0)
Type: cell-based
Conditions: Homo sapiens, MV4-11, 4 h, inhibition of C-Myc mRNA, 4 hours treatment
Description: b) Transcription of Human C-Myc in Human Leukemic MV-4-11 Cells:
The effect of compounds on transcription of human C-Myc gene is monitored in human B-myelomonocytic leukemia cell line MV-4-11 (from American Type Culture Collection (ATCC), Manassas, Va., USA) using QuantiGene 2.0 assay kit (Affymetrix, Santa Clara, Calif., USA).
Typically, 8,000 MV-4-11 cells are plated in sterile 96-well plates (Costar #3598 from Fisher Scientific Canada, Ottawa, Ontario, Canada) in Iscove's medium supplemented with 10% fetal bovine serum, glutamine (2 mM), and penicillin (100 I.U.) and streptomycin (100 μg/mL) (all from Wisent Inc., St. Bruno, Quebec, Canada). Compounds are dissolved in DMSO at 30 mM. A series of 1:3 dilutions are first made in DMSO, and further 1:100 dilutions are made in serum-containing cell culture media. The final concentration of DMSO is 0.1% in cell culture media. After cells are treated with various concentrations of test compound for 4 hours, cells are lysed using Quantigene 2.0 sample processing kit (#QS0100). C-Myc mRNA is detected using a QuantiGene 2.0 assay kit (#QS0009) with gene-specific probe to human C-Myc (#SA-50182) following the manufacturer's recommendations. Luminescene signals are read on Flexstation II microplate reader (Molecular Devices, Sunnyvale, Calif., USA).

IC50 [nM]	Compound
180	Cc1ccc(COc2cc(-c3cc(C)c(=O)n(C)c3)cc3c2NC(=O)CC3)nc1 [Compound 75, 6-(1,5-dimethyl-6-oxo-1,6-dihydropyridin-3-yl)-8-((5-methylpyridin-2-yl)methoxy)-3,4-dihydroquinolin-2(1H)-one]
420	Cc1cc(-c2cc3c(c(NCc4ccncc4)c2)NC(=O)CC3)cn(C)c1=O [Compound 28, 6-(1,5-dimethyl-6-oxo-3-pyridyl)-8-(4-pyridylmethylamino)-3,4-dihydro-1H-quinolin-2-one]
2080	Cc1cc(-c2cc3c(c(OCc4cncnc4)c2)NC(=O)CC3)cn(C)c1=O [Compound 53, 6-(1,5-dimethyl-6-oxo-1,6-dihydropyridin-3-yl)-8-(pyrimidin-5-ylmethoxy)-3,4-dihydroquinolin-2(1H)-one]
260	Cc1cc(-c2ccc3c(c2Cc2cccc(C#N)c2)CCC(=O)N3)cn(C)c1=O [Compound 88, 3-((6-(1,5-dimethyl-6-oxo-1,6-dihydropyridin-3-yl)-2-oxo-1,2,3,4-tetrahydroquinolin-5-yl)methyl)benzonitrile]
240	Cn1cc(-c2cc3c(c(OCc4ccccn4)c2)NC(=O)CC3)cc(Cl)c1=O [Compound 79, 6-(5-chloro-1-methyl-6-oxo-1,6-dihydropyridin-3-yl)-8-(pyridin-2-ylmethoxy)-3,4-dihydroquinolin-2(1H)-one]
250	Cc1cc(-c2cc3c(c(OCc4cscn4)c2)NC(=O)CC3)cn(C)c1=O [Compound 82, 6-(1,5-dimethyl-6-oxo-1,6-dihydropyridin-3-yl)-8-(thiazol-4-ylmethoxy)-3,4-dihydroquinolin-2(1H)-one]
940	Cc1cc(-c2cc3c(c(COC4CCOCC4)c2)NC(=O)CC3)cn(C)c1=O [Compound 47, 6-(1,5-dimethyl-6-oxo-1,6-dihydropyridin-3-yl)-8-(((tetrahydro-2H-pyran-4-yl)oxy)methyl)-3,4-dihydroquinolin-2(1H)-one]
2280	Cc1cc(-c2cc3c(c(OCc4ccc(F)cn4)c2)NC(=O)CC3)cn(C)c1=O [Compound 77, 6-(1,5-dimethyl-6-oxo-1,6-dihydropyridin-3-yl)-8-((5-fluoropyridin-2-yl)methoxy)-3,4-dihydroquinolin-2(1H)-one]
520	Cn1cc(-c2cc3c(c(OCc4cccnc4)c2)NC(=O)CC3)cc(Cl)c1=O [Compound 80, 6-(5-chloro-1-methyl-6-oxo-1,6-dihydropyridin-3-yl)-8-(pyridin-3-yl-methoxy)-3,4-dihydroquinolin-2(1H)-one]
2120	Cc1cc(-c2cc3c(c(COC4CCCOC4)c2)NC(=O)CC3)cn(C)c1=O (stereo not drawn) [Compound 48a, 6-(1,5-dimethyl-6-oxo-1,6-dihydropyridin-3-yl)-8-(((tetrahydro-2H-pyran-3-yl)oxy)methyl)-3,4-dihydroquinolin-2(1H)-one]
240	Cc1cc(-c2cc3c(c(NC(C)c4ccccn4)c2)NC(=O)CC3)cn(C)c1=O (stereo not drawn) [Compound 22, 6-(1,5-dimethyl-6-oxo-3-pyridyl)-8-[1-(2-pyridyl)ethylamino]-3,4-dihydro-1H-quinolin-2-one]
510	Cc1cc(-c2cc3c(c(OCc4nccs4)c2)NC(=O)CC3)cn(C)c1=O [Compound 83, 6-(1,5-dimethyl-6-oxo-1,6-dihydropyridin-3-yl)-8-(thiazol-2-ylmethoxy)-3,4-dihydroquinolin-2(1H)-one]
560	Cc1cccnc1COc1cc(-c2cc(C)c(=O)n(C)c2)cc2c1NC(=O)CC2 [Compound 76, 6-(1,5-dimethyl-6-oxo-1,6-dihydropyridin-3-yl)-8-((3-methylpyridin-2-yl)methoxy)-3,4-dihydroquinolin-2(1H)-one]
190	Cc1cc(-c2cc3c(c(OCC4CCCC4)c2)NC(=O)CC3)cn(C)c1=O [Compound 29, 8-(cyclopentylmethoxy)-6-(1,5-dimethyl-6-oxo-1,6-dihydropyridin-3-yl)-3,4-dihydroquinolin-2(1H)-one]
2680	Cc1cc(-c2cc3c(cc2Cc2cccnc2)CCC(=O)N3)cn(C)c1=O [Compound 101, 7-(1,5-dimethyl-6-oxo-1,6-dihydropyridin-3-yl)-6-(pyridin-3-ylmethyl)-3,4-dihydroquinolin-2(1H)-one]
150	Cc1cc(-c2cc3c(c(OCc4cccnc4)c2)NC(=O)CC3)cn(C)c1=O [Compound 25, 6-(1,5-dimethyl-6-oxo-1,6-dihydropyridin-3-yl)-8-(pyridin-3-ylmethoxy)-3,4-dihydroquinolin-2(1H)-one]
30	Cc1cc(-c2ccc3c(c2C(C)c2ccccc2)CCC(=O)N3)cn(C)c1=O (stereo not drawn) [Compound 95, 6-(1,5-dimethyl-6-oxo-1,6-dihydropyridin-3-yl)-5-(1-phenylethyl)-3,4-dihydroquinolin-2(1H)-one]
500	Cc1cc(-c2cc3c(c(OCc4ccncc4)c2)NC(=O)CC3)cn(C)c1=O [Compound 73, 6-(1,5-dimethyl-6-oxo-1,6-dihydropyridin-3-yl)-8-(pyridin-4-ylmethoxy)-3,4-dihydroquinolin-2(1H)-one]
250	Cc1cc(-c2cc3c(c(N(C)Cc4ccccc4)c2)NC(=O)CC3)cn(C)c1=O [Compound 5, 8-[benzyl(methyl)amino]-6-(1,5-dimethyl-6-oxo-3-pyridyl)-3,4-dihydro-1H-quinolin-2-one]
410	Cc1cc(-c2cc3c(c(O[C@H](C)c4ccccn4)c2)NC(=O)CC3)cn(C)c1=O [Compound 74b, (R)-6-(1,5-dimethyl-6-oxo-1,6-dihydropyridin-3-yl)-8-(1-(pyridin-2-yl)ethoxy)-3,4-dihydroquinolin-2(1H)-one]
7820	Cc1cc(-c2cc3c(cc2COC2CCCC2)NC(=O)CC3)cn(C)c1=O [Compound 70, 7-((cyclopentyloxy)methyl)-6-(1,5-dimethyl-6-oxo-1,6-dihydropyridin-3-yl)-3,4-dihydroquinolin-2(1H)-one]
100	Cc1cc(-c2ccc3c(c2Cc2ccc(C#N)cc2)CCC(=O)N3)cn(C)c1=O [Compound 87, 4-((6-(1,5-dimethyl-6-oxo-1,6-dihydropyridin-3-yl)-2-oxo-1,2,3,4-tetrahydroquinolin-5-yl)methyl)benzonitrile]
840	Cc1cc(-c2cc(Cc3ccccc3)c3c(c2)NC(=O)CC3)cn(C)c1=O [Compound 99, 5-benzyl-7-(1,5-dimethyl-6-oxo-1,6-dihydropyridin-3-yl)-3,4-dihydroquinolin-2(1H)-one]
250	Cc1cc(-c2ccc3c(c2Cc2ccccc2)NC(=O)CC3)cn(C)c1=O [Compound 30, 8-benzyl-7-(1,5-dimethyl-6-oxo-1,6-dihydropyridin-3-yl)-3,4-dihydroquinolin-2(1H)-one]
560	Cc1cc(-c2ccc3c(c2Cc2ccccc2C#N)CCC(=O)N3)cn(C)c1=O [Compound 89, 2-((6-(1,5-dimethyl-6-oxo-1,6-dihydropyridin-3-yl)-2-oxo-1,2,3,4-tetrahydroquinolin-5-yl)methyl)benzonitrile]
610	Cc1cc(-c2cc(COC3CCCC3)c3c(c2)NC(=O)CC3)cn(C)c1=O [Compound 100, 5-((cyclopentyloxy)methyl)-7-(1,5-dimethyl-6-oxo-1,6-dihydropyridin-3-yl)-3,4-dihydroquinolin-2(1H)-one]
550	Cc1cc(-c2cc3c(c(OCc4cnccn4)c2)NC(=O)CC3)cn(C)c1=O [Compound 52, 6-(1,5-dimethyl-6-oxo-1,6-dihydropyridin-3-yl)-8-(pyrazin-2-ylmethoxy)-3,4-dihydroquinolin-2(1H)-one]
530	Cc1cc(-c2cc3c(c(OCc4ncco4)c2)NC(=O)CC3)cn(C)c1=O [Compound 81, 6-(1,5-dimethyl-6-oxo-1,6-dihydropyridin-3-yl)-8-(oxazol-2-ylmethoxy)-3,4-dihydroquinolin-2(1H)-one]
100	Cc1cc(-c2cc3c(c(NCc4cccnc4)c2)NC(=O)CC3)cn(C)c1=O [Compound 78, 6-(1,5-dimethyl-6-oxo-1,6-dihydropyridin-3-yl)-8-(pyridyl-3-ylmethylamino)-3,4-dihydro-1H-quinolin-2-one]

Compound	IC50 [nM]
Cc1cc(-c2cc3c(c(COC4CCCC4)c2)NC(=O)CC3)cn(C)c1=O [Compound 21, 8-(cyclopentoxymethyl)-6-(1,5-dimethyl-6-oxo-3-pyridyl)-3,4-dihydro-1H-quinolin-2-one]	280
Cc1cc(-c2cc3c(cc2COC2CCC2)NC(=O)CC3)cn(C)c1=O [Compound 69, 7-(cyclobutoxymethyl)-6-(1,5-dimethyl-6-oxo-1,6-dihydropyridin-3-yl)-3,4-dihydroquinolin-2(1H)-one]	1250

Same assay, conditions: inhibition of C-Myc mRNA, 4 hours treatment

IC50 [nM]	Compound
2740	Cc1cc(-c2cc3c(c(COC4CCCOC4)c2)NC(=O)CC3)cn(C)c1=O (stereo not drawn) [Compound 48b, 6-(1,5-dimethyl-6-oxo-1,6-dihydropyridin-3-yl)-8-(((tetrahydro-2H-pyran-3-yl)oxy)methyl)-3,4-dihydroquinolin-2(1H)-one]
800	Cc1cc(-c2cc3c(c(OCC4CCCOC4)c2)NC(=O)CC3)cn(C)c1=O (stereo not drawn) [Compound 54b, 6-(1,5-dimethyl-6-oxo-1,6-dihydropyridin-3-yl)-8-((tetrahydro-2H-pyran-3-yl)methoxy)-3,4-dihydroquinolin-2(1H)-one]
